The target of one experiment is T1, human recombinant HDAC1 (Homo sapiens, UniProt Q13547).
T1 construct: purchased Enzo Life Science BML-SE456
In words: HDAC1 enzyme activity inhibition assay (in vitro, fluorimetric). The class given is biochemical. The note with it: human recombinant HDAC1, fluorimetric kit, 30° C. 60 minutes. The procedure: (§1) In order to examine the HDAC6 selectivity of the compounds of formula 1 of the present invention by HDAC1 and HDAC6 enzymatic activity inhibition assays, an experiment was performed using a conventional substance as a control.
(§2) HDAC enzyme activity was measured using a HDAC Fluorimetric Drug Discovery Kit (BML-AK511, 516, Enzo Life Science). For the HDAC1 enzyme activity test, human recombinant HDAC1 (BML-SE456) was used as an enzyme source, and Fluor de Lys®-“SIRT1 (BNL-KI177) was used as a substrate. A 5-fold dilution of the compound was seeded into a 96-well plate, and then 0.3 μg of the enzyme and 10 μM of the substrate were added to each well of the plate and allowed to react at 30° C. for 60 minutes. Then, Fluor de Lys® Developer II (BML-KI176) was added thereto and allowed to react for 30 minutes, after which the fluorescence value (Ex 360, Em 460) was measured using a multi-plate reader (Flexstation 3, Molecular Device). The HDAC6 enzyme was tested using human recombinant HDAC6 (382180) (Calbiochem) according to the same protocol as the HDAC1 enzyme activity test method. Based on the resulting values, each IC50 value was calculated using GraphPad Prism4.0 program.

The target in the next experiment is T2, human recombinant HDAC6 (Homo sapiens, UniProt Q9UBN7).
T2 construct: purchased Calbiochem 382180
T2 sequence (Q9UBN7 1-1215): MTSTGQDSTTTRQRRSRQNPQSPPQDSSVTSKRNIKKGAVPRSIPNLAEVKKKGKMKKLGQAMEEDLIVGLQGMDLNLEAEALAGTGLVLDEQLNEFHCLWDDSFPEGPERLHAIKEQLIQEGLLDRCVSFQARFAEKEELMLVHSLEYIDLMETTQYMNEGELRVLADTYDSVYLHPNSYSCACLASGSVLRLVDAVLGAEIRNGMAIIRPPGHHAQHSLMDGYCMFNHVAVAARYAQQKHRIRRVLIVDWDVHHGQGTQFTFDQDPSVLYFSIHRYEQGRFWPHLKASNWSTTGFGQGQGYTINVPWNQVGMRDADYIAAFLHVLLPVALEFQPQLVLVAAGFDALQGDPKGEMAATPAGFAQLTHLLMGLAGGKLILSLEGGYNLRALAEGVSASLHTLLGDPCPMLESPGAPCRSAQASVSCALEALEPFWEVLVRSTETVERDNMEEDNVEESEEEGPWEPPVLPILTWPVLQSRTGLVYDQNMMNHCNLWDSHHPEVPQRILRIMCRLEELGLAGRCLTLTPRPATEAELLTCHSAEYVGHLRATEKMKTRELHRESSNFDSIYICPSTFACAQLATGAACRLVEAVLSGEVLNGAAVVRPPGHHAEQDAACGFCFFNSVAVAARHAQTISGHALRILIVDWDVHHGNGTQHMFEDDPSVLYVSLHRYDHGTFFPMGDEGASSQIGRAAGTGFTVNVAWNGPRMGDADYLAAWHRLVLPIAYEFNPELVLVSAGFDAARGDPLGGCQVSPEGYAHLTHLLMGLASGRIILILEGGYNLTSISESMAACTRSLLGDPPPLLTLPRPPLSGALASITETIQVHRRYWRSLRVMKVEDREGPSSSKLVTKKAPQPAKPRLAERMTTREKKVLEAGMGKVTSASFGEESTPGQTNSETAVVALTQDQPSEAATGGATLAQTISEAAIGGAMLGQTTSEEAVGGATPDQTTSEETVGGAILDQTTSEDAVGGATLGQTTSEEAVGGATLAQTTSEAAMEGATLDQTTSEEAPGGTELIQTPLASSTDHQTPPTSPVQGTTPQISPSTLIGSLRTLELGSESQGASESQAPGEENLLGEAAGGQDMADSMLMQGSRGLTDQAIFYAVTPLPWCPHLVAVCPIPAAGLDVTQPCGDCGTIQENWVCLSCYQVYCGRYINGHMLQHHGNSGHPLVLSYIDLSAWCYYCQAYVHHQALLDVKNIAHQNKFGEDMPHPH
In words: HDAC6 enzyme activity inhibition assay (in vitro, fluorimetric). The format is biochemical. The conditions noted are these: for HDAC6 selectivity (fold): HDAC6 selectivity over HDAC1; for IC50: human recombinant HDAC6, fluorimetric kit, same protocol as HDAC1. The procedure:
as §1, §2

Some results are limits rather than exact numbers.

This is an account of results in US10287255B2, “Compounds as histone deacetylase 6 inhibitors and pharmaceutical compositions comprising the same” (CHONG KUN DANG PHARMACEUTICAL CORP., priority 2014, dated 2019).

T1 sequence (Q13547 whole entry): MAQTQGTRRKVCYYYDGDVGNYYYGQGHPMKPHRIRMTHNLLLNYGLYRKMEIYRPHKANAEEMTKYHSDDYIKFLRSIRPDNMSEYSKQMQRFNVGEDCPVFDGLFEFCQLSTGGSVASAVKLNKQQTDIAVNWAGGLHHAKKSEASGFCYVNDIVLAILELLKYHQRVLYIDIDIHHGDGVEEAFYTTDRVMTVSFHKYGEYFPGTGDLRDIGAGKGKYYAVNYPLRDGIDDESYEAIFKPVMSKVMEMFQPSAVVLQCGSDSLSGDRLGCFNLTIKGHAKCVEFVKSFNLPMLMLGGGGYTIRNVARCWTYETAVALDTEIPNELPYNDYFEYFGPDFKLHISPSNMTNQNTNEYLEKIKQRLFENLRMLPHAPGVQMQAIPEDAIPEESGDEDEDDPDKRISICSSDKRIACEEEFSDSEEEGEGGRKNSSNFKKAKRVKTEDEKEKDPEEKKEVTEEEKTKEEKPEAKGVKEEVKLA

Turning to `C[C@@H]1CN(Cc2ccc(C(=O)NO)cc2)C[C@H](C)N1C(=O)c1cccc(CN2CCN(S(C)(=O)=O)CC2)c1` [Compound 444, 4-(((3R,5S)-3,5-dimethyl-4-(3-((4-(methylsulfonyl)piperazin-1-yl)methyl)benzoyl)piperazin-1-yl)methyl)-N-hydroxybenzamide], the half-inhibitory concentration (IC50) (usually the concentration at which inhibition is half-maximal) at human recombinant HDAC1 turned out to be 8500 nM. For the same molecule, at human recombinant HDAC6, the “HDAC6 selectivity (fold)” value is 146 fold and the IC50 worked out at 58 nM.
Take `C[C@@H]1CN(C(=O)c2cccc(-c3cccnc3)c2)C[C@H](C)N1Cc1ccc(C(=O)NO)cc1` [Compound 261, 4-(((2S,6R)-2,6-dimethyl-4-(3-(pyridin-3-yl)benzoyl)piperazin-1-yl)methyl)-N-hydroxybenzamide]: the IC50 at human recombinant HDAC1 worked out at 2000 nM. Besides, at human recombinant HDAC6, the “HDAC6 selectivity (fold)” value turned out to be 3 fold and the 50% inhibitory concentration (IC50) is 577 nM.
In the same order, the values of `COc1ccc(C(=O)N2[C@H](C)CN(Cc3ccc(C(=O)NO)cc3)C[C@@H]2C)cc1` [Compound 291, N-hydroxy-4-(((3R,5S)-4-(4-methoxybenzoyl)-3,5-dimethylpiperazin-1-yl)methyl)benzamide] are 1300 nM, 24 fold and 55 nM.
The matching figures for `C[C@@H]1CN(Cc2ccc(-c3ccco3)cc2)C[C@H](C)N1Cc1ccc(/C=C/C(=O)NO)cc1` [Compound 477, (E)-3-(4-(((2S,6R)-4-(4-(furan-2-yl)benzyl)-2,6-dimethylpiperazin-1-yl)methyl)phenyl)-N-hydroxyacrylamide]: 2700 nM, 11 fold and 253 nM.
With `C[C@@H]1CN(Cc2ccc(C(=O)NO)cc2)C[C@H](C)N1C(=O)c1cccc(CN2CCCC2)c1` [Compound 423, 4-(((3R,5S)-3,5-dimethyl-4-(3-(pyrrolidin-1-ylmethyl)benzoyl)piperazin-1-yl)methyl)-N-hydroxybenzamide], the figures for the IC50 on human recombinant HDAC1 and on human recombinant HDAC6 were 1000 nM and 46 nM, respectively. Moreover, the “HDAC6 selectivity (fold)” value at human recombinant HDAC6 came out at 22 fold.
The matching figures for `C[C@@H]1CN(C(=O)c2cccc(CN3CCCC3)c2)C[C@H](C)N1Cc1ccc(/C=C/C(=O)NO)cc1` [Compound 480, (E)-3-(4-(((2S,6R)-2,6-dimethyl-4-(3-(pyrrolidin-1-ylmethyl)benzoyl)piperazin-1-yl)methyl)phenyl)-N-hydroxyacrylamide]: 1000 nM, 467 nM and 2 fold.
In the same order, the values of `C[C@@H]1CN(Cc2ccc(C(=O)NO)cc2)C[C@H](C)N1C(=O)c1cccc(CN2CCN(C)CC2)c1` [Compound 432, 4-(((3R,5S)-3,5-dimethyl-4-(3-((4-methylpiperazin-1-yl)methyl)benzoyl)piperazin-1-yl)methyl)-N-hydroxybenzamide] are 3400 nM, 42 nM and 81 fold.
In the same order, the values of `COc1ccc(NC(=O)N2C[C@@H](C)N(Cc3ccc(C(=O)NO)cc3)[C@@H](C)C2)cc1` [Compound 165, (3R,5S)-4-(4-(hydroxycarbamoyl)benzyl)-N-(4-methoxyphenyl)-3,5-dimethylpiperazine-1-carboxamide] are 1400 nM, 560 nM and 2 fold.
As to `C[C@@H]1CN(Cc2cccc(CN3CCCC3)c2)C[C@H](C)N1Cc1ccc(/C=C/C(=O)NO)cc1` [Compound 475, (E)-3-(4-(((2S,6R)-2,6-dimethyl-4-(3-(pyrrolidin-1-ylmethyl)benzyl)piperazin-1-yl)methyl)phenyl)-N-hydroxyacrylamide], the IC50 came to 800 nM on human recombinant HDAC1 and 114 nM at human recombinant HDAC6. Further, the “HDAC6 selectivity (fold)” value at human recombinant HDAC6 is recorded as 7 fold.
In the same order, the values of `C[C@@H]1CN(Cc2ccc(C(=O)NO)cc2)C[C@H](C)N1C(=O)c1cccc(-c2ccco2)c1` [Compound 242, 4-(((3R,5S)-4-(3-(furan-2-yl)benzoyl)-3,5-dimethylpiperazin-1-yl)methyl)-N-hydroxybenzamide] are 2400 nM, 98 nM and 24 fold.
Take `CCN(CC)C[C@@H](C)NCc1cccc(CN2[C@H](C)CN(Cc3ccc(C(=O)NO)cc3)C[C@@H]2C)c1` [Compound 455, 4-(((3R,5S)-4-(3-(((1-(diethylamino)propan-2-yl)amino)methyl)benzyl)-3,5-dimethylpiperazin-1-yl)methyl)-N-hydroxybenzamide]: the IC50 at human recombinant HDAC1 is 9600 nM. Further, at human recombinant HDAC6, the “HDAC6 selectivity (fold)” value was 93 fold and the half-inhibitory concentration (IC50) was 103 nM.
In the same order, the values of `C[C@@H]1CN(Cc2ccc(C(=O)NO)cc2)C[C@H](C)N1Cc1ccncc1` [Compound 266, 4-(((3R,5S)-3,5-dimethyl-4-(pyridin-4-ylmethyl)piperazin-1-yl)methyl)-N-hydroxybenzamide] are 19100 nM, 68 fold and 282 nM.
In the same order, the values of `C[C@@H]1CN(S(=O)(=O)c2ccc(C(=O)NO)cc2)C[C@H](C)N1Cc1ccccc1` [Compound 818, 4-(((3R,5S)-4-benzyl-3,5-dimethylpiperazin-1-yl)sulfonyl)-N-hydroxybenzamide] are above 10000 nM, above 11 fold and 870 nM.
The matching figures for `C[C@@H]1CN(Cc2ccc(C(=O)NO)cc2)C[C@H](C)N1Cc1ccc(-c2ccoc2)cc1` [Compound 309, 4-(((3R,5S)-4-(4-(furan-3-yl)benzyl)-3,5-dimethylpiperazin-1-yl)methyl)-N-hydroxybenzamide]: 1600 nM, 21 fold and 73 nM.
As for `C[C@@H]1CN(C(=O)Cc2cccc(C3=CCC(C)(C)CC3)c2)C[C@H](C)N1Cc1ccc(C(=O)NO)cc1` [Compound 253, 4-(((2S,6R)-4-(2-(4′,4′-dimethyl-2′,3′,4′,5′-tetrahydro-[1,1′-biphenyl]-3-yl)acetyl)-2,6-dimethylpiperazin-1-yl)methyl)-N-hydroxybenzamide], the 50% inhibitory concentration (IC50) at human recombinant HDAC1 was 22600 nM; at human recombinant HDAC6 it was 1540 nM. In addition, the “HDAC6 selectivity (fold)” value on human recombinant HDAC6 was 15 fold.
In the same order, the values of `C[C@@H]1CN(C(=O)Cc2cccc(-c3ccccc3)c2)C[C@H](C)N1Cc1ccc(C(=O)NO)cc1` [Compound 250, 4-(((2S,6R)-4-(2-([1,1′-biphenyl]-3-yl)acetyl)-2,6-dimethylpiperazin-1-yl)methyl)-N-hydroxybenzamide] are 9500 nM, 168 nM and 57 fold.
For `C[C@@H]1CN(Cc2ccc(C(=O)NO)cc2)C[C@H](C)N1C(=O)c1ccc(CN2CCCCC2)cc1` [Compound 459, 4-(((3R,5S)-3,5-dimethyl-4-(4-(piperidin-1-ylmethyl)benzoyl)piperazin-1-yl)methyl)-N-hydroxybenzamide], the half-maximal inhibitory concentration (IC50) on human recombinant HDAC1 came out at 3800 nM. Also, on human recombinant HDAC6, the “HDAC6 selectivity (fold)” value was 25 fold and the half-maximal inhibitory concentration (IC50) is 149 nM.
Regarding `C[C@@H]1CN(Cc2ccc(C(=O)NO)cc2)C[C@H](C)N1Cc1ccccc1C1=CCN(CC(F)(F)F)CC1` [Compound 483, 4-(((3R,5S)-3,5-dimethyl-4-(2-(1-(2,2,2,2-trifluoroethyl)-1,2,3,6-tetrahydropyridin-4-yl)benzyl)piperazin-1-yl)methyl)-N-hydroxybenzamide], the IC50 on human recombinant HDAC1 came out at 17100 nM; at human recombinant HDAC6 it was 103 nM. For the same molecule, on human recombinant HDAC6, the “HDAC6 selectivity (fold)” value is on record as 166 fold.
